The target of assay [1] is full-length human PRMT8 isoform 1 (Homo sapiens, UniProt Q9NR22). Put plainly: PRMT8 Biochemical Assay (3H-SAM Flashplate, peptide substrate). The conditions noted are these: read-out: Biochemical IC50 PRMT8. Summed up:
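Scintillation Flashplate capture of biotinylated histone H4 (31-45) peptide (150 nM) methylated by 1.5 nM PRMT8 using 3H-SAM (50 nM) with unlabelled SAM (550 nM); enzyme and compound preincubated 30 min, room temperature, in Bicine pH 7.6 buffer with TCEP, BSG, Tween 20 and 2% DMSO. Stopped with excess cold SAM (400 uM); IC50 from % inhibition, min control 1 mM SAH.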

For assay [2], the system named is mono-methyl arginine in RKO cells. The assay can be described thus: RKO Methylation Assay, In Cell Western (ICW) for detection of mono-methyl arginine and DNA content. The format is cell-based. The conditions noted are these: Homo sapiens, RKO, 72 h, RKO cells, read-out: In Cell Western EC30. In outline: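 RKO cells were treated with compound for 72 hours at 37 °C, methanol-fixed and stained overnight at 4 °C with anti-mono-methyl arginine (1:200), with DRAQ5 for DNA. Odyssey 800/700 nm intensity ratio was normalized to DMSO and 20 μM reference-compound controls. EC30 from triplicate nine-point curves.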

[3] abbreviates: single experiment or average of multiple experiments.
The mark [4] stands for this setting: 72 hours compound incubation, mono-methyl arginine signal normalised to DNA content (DRAQ5), percent activation vs 20 μM reference compound.
Setting [5] is: 72 hours incubation, mono-methyl arginine signal normalised to DNA content, single experiment or average of multiple experiments.

Drawing on US11512053B2, “Arginine methyltransferase inhibitors and uses thereof” (priority 2013, dated 2022), this text covers IC50 and EC30 for 36 compounds.

Molecules are shown by their SMILES. Where a name gives a salt, the structure may show the parent alone. Read-outs that look alike come from different tables or passages of the source. A value given as a limit tells only on which side of the number the result lay.

By IC50 is commonly meant the concentration that gives 50% inhibition. The EC30 is the concentration needed for an effect of 30%.

full-length human PRMT8 isoform 1, sequence (Q9NR22 whole entry, canonical isoform): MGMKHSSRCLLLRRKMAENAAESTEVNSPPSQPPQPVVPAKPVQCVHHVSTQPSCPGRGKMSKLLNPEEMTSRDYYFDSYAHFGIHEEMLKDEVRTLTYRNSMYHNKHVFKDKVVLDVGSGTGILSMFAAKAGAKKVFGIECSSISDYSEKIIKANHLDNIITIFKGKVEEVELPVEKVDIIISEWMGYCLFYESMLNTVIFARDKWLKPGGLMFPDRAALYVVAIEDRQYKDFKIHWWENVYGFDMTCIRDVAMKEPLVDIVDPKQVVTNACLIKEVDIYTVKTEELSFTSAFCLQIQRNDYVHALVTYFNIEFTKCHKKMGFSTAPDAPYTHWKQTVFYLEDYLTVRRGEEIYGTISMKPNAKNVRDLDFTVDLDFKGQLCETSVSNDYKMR

Turning to `CCOC[C@H]1CC(c2n[nH]cc2CN(C)CCNC)C[C@H](COCC)C1` (stereo partly drawn) [Compound 188], the IC50 was 1010 to 3000 nM in assay [1] and 1540 nM in assay [1] (setting [3]).
For the compound `CCOC[C@@H]1C[C@H](COCC)C[C@H](c2n[nH]cc2CN(C)CCNC)C1` [Compound 189], the IC50 in assay [1] is 101 to 1000 nM; in assay [1] (setting [3]) it was 478 nM. The EC30 in assay [2] (setting [4]) was 3.01 to 12 µM; in assay [2] (setting [5]) it was 6.62 µM.
In the same order, the values of `CNCCN(C)Cc1c[nH]nc1C1CCC(=O)N(CCCOC)C1` (stereo not drawn) [Compound 190] are 101 to 1000 nM, 352 nM, 3.01 to 12 µM and 6.62 µM.
For `CNCCN(C)Cc1c[nH]nc1C1CCC(=O)N(Cc2ccc(C(F)(F)F)cc2)C1` (stereo not drawn) [Compound 191], in that order: 101 to 1000 nM, 152 nM, 3.01 to 12 µM and 9.25 µM.
As for `CNCCN(C)Cc1c[nH]nc1[C@H]1CC[C@H](N(CC2CCOCC2)C(=O)CC(C)C)CC1` [Compound 192], the IC50 was 101 to 1000 nM in assay [1] and 459 nM in assay [1] (setting [3]). In addition, the EC30 is 3.01 to 12 µM in assay [2] (setting [4]) and 9.25 µM in assay [2] (setting [5]).
In the same order, the values of `CNCCN(C)Cc1c[nH]nc1[C@H]1CC[C@H](N(CC(C)C)C(=O)CC2CCOCC2)CC1` [Compound 193] are below 100 nM, 68.8 nM, below 3 µM and 1.44 µM.
For `CNCCN(C)Cc1c[nH]nc1C1CCC(=O)CC1` [Compound 194], in that order: below 100 nM, 35.3 nM, below 3 µM and 1.18 µM.
Turning to `CCN(C(=O)CC1CCOCC1)[C@H]1CC[C@H](c2n[nH]cc2CN(C)CCNC)CC1` [Compound 195], the IC50 was below 100 nM in assay [1] and 35.6 nM in assay [1] (setting [3]). The EC30 is 3.01 to 12 µM in assay [2] (setting [4]) and 4.89 µM in assay [2] (setting [5]).
For `CCN(C(=O)CC1CCOCC1)[C@H]1CC[C@@H](c2n[nH]cc2CN(C)CCNC)CC1` [Compound 196], in that order: 101 to 1000 nM, 415 nM, 3.01 to 12 µM and 4.89 µM.
On to `CNCCN(C)Cc1c[nH]nc1[C@H]1CC[C@]2(CCN(Cc3cc(F)cc(F)c3)C2=O)CC1` [Compound 197], for which the values for the IC50 in assay [1] and in assay [1] (setting [3]) were below 100 nM and 15.6 nM, respectively. Further, the EC30 in assay [2] (setting [4]) is below 3 µM; in assay [2] (setting [5]) it was 0.406 µM.
In the same order, the values of `CNCCN(C)Cc1c[nH]nc1[C@H]1CC[C@]2(CCCO2)OC1` [Compound 198] are 3010 to 10000 nM, at least 10000 nM, below 3 µM and 0.406 µM.
In the same order, the values of `CNCCN(C)Cc1c[nH]nc1C1CCC2(CCCC2)OC1` (stereo not drawn) [Compound 199] are below 100 nM, 38.3 nM, below 3 µM and 0.802 µM.
As to `CNCCN(C)Cc1n[nH]cc1[C@H]1CC[C@@]2(CC1)CC(C)(C)CO2` [Compound 200, Methyl[2-(methylamino)ethyl]([4-[(5S,8S)-3,3-dimethyl-1-oxaspiro[4.5]decan-8-yl]-1H-pyrazol-3-yl]methyl)amine trifluoroacetic acid salt], the IC50 in assay [1] is below 100 nM. For the same compound, the EC30 in assay [2] (setting [4]) was below 3 µM; in assay [2] (setting [5]) it was 0.0203 µM.
For `CNCCN(C)Cc1n[nH]cc1[C@H]1CC[C@]2(CC1)CC(C)(C)CO2` [Compound 201], in that order: below 100 nM, below 3 µM and 0.155 µM.
`CCOCC1CC(c2n[nH]cc2CN(C)CCNC)CCC1(C)C` (stereo not drawn) [Compound 202]: the IC50 in assay [1] is below 100 nM; in assay [1] (setting [3]), 26.9 nM. The results for the EC30 in assay [2] (setting [4]) and in assay [2] (setting [5]) were below 3 µM and 0.327 µM, respectively.
For `CNCCN(C)Cc1n[nH]cc1[C@H]1CC[C@H](C(=O)NCCC(C)C)CC1` [Compound 203], in that order: below 100 nM, 84.4 nM, below 3 µM and 0.327 µM.
For `CNCCN(C)Cc1c[nH]nc1[C@H]1CC[C@@H](C(=O)NCCC(C)C)CC1` [Compound 204], in that order: below 100 nM, 51.6 nM, below 3 µM and 1.55 µM.
For the compound `CNCCN(C)Cc1cn(C)nc1[C@H]1CC[C@@]2(CC1)CC(C)(C)CO2` [Compound 205, Methyl([1-methyl-3-[(5S,8S)-3,3-dimethyl-1-oxaspiro[4.5]decan-8-yl]-1H-pyrazol-4-yl]methyl)[2-(methylamino)ethyl]amine hydrochloride], the IC50 in assay [1] was below 100 nM; in assay [1] (setting [3]), 15.4 nM. The EC30 was below 3 µM in assay [2] (setting [4]) and 0.0144 µM in assay [2] (setting [5]).
In the same order, the values of `CNCCN(C)Cc1cn(C)nc1[C@H]1CC[C@]2(CC1)CC(C)(C)CO2` [Compound 206, Methyl([1-methyl-3-[(5R,8S)-3,3-dimethyl-1-oxaspiro[4.5]decan-8-yl]-1H-pyrazol-4-yl]methyl)[2-(methylamino)ethyl]amine hydrochloride] are below 100 nM, 28.9 nM, below 3 µM and 0.0765 µM.
Turning to `CN(CCN)Cc1c[nH]nc1[C@H]1CC[C@@]2(CC1)CC(C)(C)CO2` [Compound 207], in assay [1], the IC50 was below 100 nM. For the same compound, the EC30 in assay [2] (setting [4]) was below 3 µM; in assay [2] (setting [5]) it was 0.0121 µM.
As to `CN(CCN)Cc1c[nH]nc1[C@H]1CC[C@]2(CC1)CC(C)(C)CO2` [Compound 208], the IC50 in assay [1] was below 100 nM; in assay [1] (setting [3]) it was 12.8 nM. The EC30 is below 3 µM in assay [2] (setting [4]) and 0.0672 µM in assay [2] (setting [5]).
As for `CNCCN(C)Cc1c[nH]nc1[C@H]1CC[C@H](C(=O)N(C)CCC(C)C)CC1` [Compound 209], the IC50 in assay [1] is below 100 nM; in assay [1] (setting [3]) it was 43.9 nM. The results for the EC30 in assay [2] (setting [4]) and in assay [2] (setting [5]) were below 3 µM and 0.916 µM, respectively.
`CNCCN(C)Cc1c[nH]nc1[C@H]1CC[C@@H](C(=O)N(C)CCC(C)C)CC1` [Compound 210]: the IC50 in assay [1] was below 100 nM; in assay [1] (setting [3]) it was 22.9 nM. Moreover, the figures for the EC30 in assay [2] (setting [4]) and in assay [2] (setting [5]) were below 3 µM and 0.28 µM, respectively.
In the same order, the values of `CNCCN(C)Cc1c[nH]nc1[C@H]1CC[C@H](C(=O)NCCOc2ccccc2)CC1` [Compound 211] are below 100 nM, 10 nM, below 3 µM and 0.155 µM.
In the same order, the values of `CNCCN(C)Cc1c[nH]nc1[C@H]1CC[C@@H](C(=O)NCCOc2ccccc2)CC1` [Compound 212] are below 100 nM, 8.28 nM, below 3 µM and 0.433 µM.
For the compound `CNCCN(C)Cc1c[nH]nc1[C@H]1CC[C@@H](N(CCOc2ccccc2)C(=O)CCOC)CC1` [Compound 218], the IC50 in assay [1] was below 100 nM; in assay [1] (setting [3]), 67 nM.
In the case of `CNCCN(C)Cc1c[nH]nc1[C@H]1CC[C@@H](N(CCOc2ccccc2)C(=O)CCCOC)CC1` [Compound 228], the IC50 in assay [1] is below 100 nM; in assay [1] (setting [3]) it was 100 nM.
In the same order, the values of `CNCCN(C)Cc1c[nH]nc1[C@H]1CC[C@@H](N(CCCOC)C(=O)CC(C)C)CC1` [Compound 242] are below 100 nM and 83.7 nM.
Regarding `CNCCN(C)Cc1c[nH]nc1[C@H]1CC[C@H](N(CCCOC)C(=O)CCC(C)C)CC1` [Compound 243], the IC50 was below 100 nM in assay [1] and 70.8 nM in assay [1] (setting [3]).
For `CNCCN(C)Cc1cnn(C)c1[C@H]1CC[C@@]2(CC1)CC(C)(C)CO2` [Compound 245, Methyl ([2-[methyl([1-methyl-5-[(5S,8S)-3,3-dimethyl-1-oxaspiro[4.5]decan-8-yl]-1H-pyrazol-4-yl]methyl)amino]ethyl])amine trifluoroacetic acid salt], in that order: below 100 nM and 18.3 nM.
For `CCN(C(=O)CCC(C)C)[C@H]1CC[C@H](c2n[nH]cc2CN(C)CCNC)CC1` [Compound 250], in that order: below 100 nM and 42.4 nM.
For the compound `CNCCN(C)Cc1c[nH]nc1C1CCC(C)(C)[C@@H](C(=O)NCCC(C)C)C1` (stereo partly drawn) [Compound 263, (1S)-2,2-dimethyl-5-[4-({methyl[2-(methylamino)ethyl]amino}methyl)-1H-pyrazol-3-yl]-N-(3-methylbutyl)cyclohexane-1-carboxamide], the IC50 in assay [1] was below 100 nM; in assay [1] (setting [3]), 35.1 nM.
In the same order, the values of `CNCCN(C)Cc1c[nH]nc1C1CCC(C)(C)[C@H](C(=O)NCCOC)C1` (stereo partly drawn) [Compound 264] are 101 to 1000 nM and 181 nM.
For `CNCCN(C)Cc1c[nH]nc1C1CCC(C)(C)[C@H](C(=O)NCCCOC)C1` (stereo partly drawn) [Compound 265], in that order: 101 to 1000 nM and 171 nM.
In the same order, the values of `CNCCN(C)Cc1c[nH]nc1C1CCC(C)(C)[C@@H](C(=O)NCC(C)C)C1` (stereo partly drawn) [Compound 266] are below 100 nM and 63.1 nM.
`CNCCN(C)Cc1c[nH]nc1C1C[C@H](C(=O)N(C)CC(C)C)C(C)(C)[C@H](C(=O)N(C)CC(C)C)C1` (stereo partly drawn) [Compound 267]: the IC50 in assay [1] is 3010 to 10000 nM; in assay [1] (setting [3]), 5910 nM.
